# Measurements reported in PubChem BioAssay AID651948 (The Scripps Research Institute Molecular Screening Center, 2012).
# Molecular target: Heat shock 70 kDa protein 1A (Homo sapiens) (UniProt P0DMV8)
# Test: PubChem AID 651948
# Settings: HeLa Hsp70 protein level, western blot, 8 h; at 10 µM; stronger effect = higher value
# Sequence of Heat shock 70 kDa protein 1A (Homo sapiens) (P0DMV8 whole entry, looked up): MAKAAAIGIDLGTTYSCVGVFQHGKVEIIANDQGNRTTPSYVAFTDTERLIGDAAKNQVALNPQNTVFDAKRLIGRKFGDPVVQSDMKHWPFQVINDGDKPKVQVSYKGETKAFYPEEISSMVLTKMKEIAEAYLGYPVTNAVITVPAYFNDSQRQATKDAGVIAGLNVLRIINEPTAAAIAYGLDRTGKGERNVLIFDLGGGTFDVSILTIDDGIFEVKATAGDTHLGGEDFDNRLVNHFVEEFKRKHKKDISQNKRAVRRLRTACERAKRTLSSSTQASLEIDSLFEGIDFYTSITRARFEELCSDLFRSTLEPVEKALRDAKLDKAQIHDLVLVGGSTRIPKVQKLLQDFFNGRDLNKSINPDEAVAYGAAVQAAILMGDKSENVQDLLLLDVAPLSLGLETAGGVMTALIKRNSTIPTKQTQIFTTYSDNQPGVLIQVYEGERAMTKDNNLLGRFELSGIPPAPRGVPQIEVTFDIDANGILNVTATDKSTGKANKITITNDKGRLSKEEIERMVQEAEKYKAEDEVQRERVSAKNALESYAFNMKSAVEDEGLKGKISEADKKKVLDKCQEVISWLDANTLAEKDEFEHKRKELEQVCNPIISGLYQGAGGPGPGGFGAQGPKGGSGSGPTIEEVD
structure (smiles),measurement,value
COc1ccc(/C=C/C=C2C(=O)NC(=O)NC2=O)cc1,fold induction,1.8
